Data reported in patent US20240252524A1 (Hovione Scientia Limited, priority 2021, published 2024).
“And” between values parts separate entries of the source, which are not always exact repeats. Equal values may be shown once. Read-outs that look alike come from different tables or passages of the source.

Columns and labels:
[1] = Stability of ivermectin under the high shear mixer process; type: physicochemical; settings: high shear mixer process of the invention
From the text: Under the conditions set forth in this invention, ivermectin is submitted to high shear forces without suffering decomposition. High shear mixing processes provide stressful conditions which promote decomposition of the compounds submitted to such processes. The stressful conditions involve recirculating mixtures of the compounds with solvents, at very high speed, through mechanical systems which generate unaligned forces, driving to strong collisions between the particles and the mechanical parts of the high shear mixer and between the particles themselves. Such collisions break the particles of the product thus reducing their particle size. A side effect of the mechanical collisions is a significant increase in the temperature during the high shear mixer process. […] In fact, ivermectin is purified with good yields under the high shear process conditions set forth in this invention.

[2] = cited from earlier work
[3] = room temperature, cited from earlier work
[4] = Particle size by laser diffraction (Sympatec HELOS) before/after high shear mixing; type: physicochemical
From the text: The particle size data were obtained from a Sympatec module HELOS (Helium-Neon Laser Optical System), dispersion Unit RODOS/M, potent products accessory ASPIROS, lens R5 (4.50 μm-875 μm) and R4 (1.80 μm-350 μm), conditions R5, 0.1 bar-1 bar, 18 mm/s, R4, 3 bar, 18 mm/s

[5] = cited from earlier work; remark: listed apart in the source

## Ivermectin
[1]
  decomposition under high shear mixer process: did not decompose the product
[2]
  solubility in water: low solubility in water
[3]; Acetone
  Pharmacopoeia Classification: Soluble
  Solubility: 81 mg/mL
[3]; Diethyl ether
  Pharmacopoeia Classification: Soluble
  Solubility: 61 mg/mL
[3]; Dimethylformamide
  Pharmacopoeia Classification: Freely soluble
  Solubility: 510 mg/mL
[3]; Ethanol
  Pharmacopoeia Classification: Soluble
  Solubility: 97 mg/mL
[3]; Ethyl acetate
  Pharmacopoeia Classification: Freely soluble
  Solubility: 240 mg/mL
[3]; Isopropanol (2-propanol)
  Pharmacopoeia Classification: Soluble
  Solubility: 70 mg/mL
[3]; Methanol
  Pharmacopoeia Classification: Freely soluble
  Solubility: 220 mg/mL
[3]; Methyl Ethyl ketone
  Pharmacopoeia Classification: Freely soluble
  Solubility: 320 mg/mL
[3]; Tetrahydrofuran
  Pharmacopoeia Classification: Freely soluble
  Solubility: 390 mg/mL
[3]; Toluene
  Pharmacopoeia Classification: Soluble
  Solubility: 63 mg/mL
[3]; Water
  Pharmacopoeia Classification: Practically Insoluble
  Solubility: 0.000001 mg/mL
[3]; n-Hexane
  Pharmacopoeia Classification: Slightly soluble
  Solubility: 0.69 mg/mL
[3]; p-Dioxane
  Pharmacopoeia Classification: Freely soluble
  Solubility: 430 mg/mL
[4]; Example 1: ethanol/water/formamide/methylparaben, 2000 RPM, about 3 hours, 0-5° C.
  D (90) after high shear mixing: 56 μm
[4]; Example 2: ethanol/water/formamide/BHA, 2000 RPM, about 3 hours, 0-5° C.
  Dv(90) after high shear mixing: 53 μm
[4]; Example 3: ethanol (100 ml)/water (50 ml)/formamide/methylparaben, 2000 RPM, about 3 hours, 0-5° C.
  Dv(90) after high shear mixing: 57 μm
[4]; Example 4: water/isopropanol/formamide/methylparaben, 2000 RPM, about 3 hours, 0-5° C.
  Dv(90) after high shear mixing: 56 μm
[4]; Example 5: water (16 ml)/ethanol (16 ml)/formamide, 1000 RPM, about 2 hours, 0-5° C.
  Dv(90) after high shear mixing: 42 μm
[4]; Example 6: water (26 ml)/ethanol (30 ml)/formamide, 1000 RPM, about 2 hours, 0-5° C.
  Dv(90) after high shear mixing: 36 μm
[4]; Example 7: water (1 ml)/ethanol (30 ml)/formamide, 1000 RPM, about 2 hours, 0-5° C.
  Dv(90) after high shear mixing: 56 μm
[4]; before high shear mixing
  D (90) / Dv(90) of starting ivermectin: 301 μm and 295 μm and 300 μm
[5]
  optimum pH for ivermectin stability in solution: 6.3
